In ChEMBL document CHEMBL1159151, “Synthesis and evaluation of cytotoxic activity of novel arylsulfonylimidazolidinones” (Bioorg Med Chem Lett, 1996):
pIC50: −log10 of the molar value.

Legend:
A549 = experiment: In vitro cytotoxic activity against human lung carcinoma A549 cell line; assay type: functional, cell-based
SK-MEL-2 = experiment: In vitro cytotoxic activity against human melanoma SK-MEL-2 cell line; assay type: functional, cell-based

O=C1NC(c2ccc(Cl)cc2)CN1S(=O)(=O)c1ccc2c(c1)CCC2 (stereo not given)
pIC50 (A549): 4.06
pIC50 (SK-MEL-2): 4.19

O=C(Nc1ccc(Cl)cc1)NS(=O)(=O)c1ccc2c(c1)CCC2 [SULOFENUR]
pIC50 (A549): 4.95
pIC50 (SK-MEL-2): 4.89

Cc1ccc(S(=O)(=O)N2CC(c3ccc(Br)cc3)NC2=O)cc1 (stereo not given)
pIC50 (A549): < 3.60
pIC50 (SK-MEL-2): < 3.60

O=C1NCC(c2ccccc2)N1S(=O)(=O)c1ccc2c(c1)CCC2 (stereo not given)
pIC50 (A549): 4.23
pIC50 (SK-MEL-2): 4.41

O=C1NCC(c2ccc(Br)cc2)N1S(=O)(=O)c1ccc(Cl)cc1 (stereo not given)
pIC50 (A549): 4.08
pIC50 (SK-MEL-2): 3.97

O=C1NC(c2ccccc2)CN1S(=O)(=O)c1ccc2c(c1)CCC2 (stereo not given)
pIC50 (A549): 6.04

O=C1NCC(c2ccc(Cl)cc2)N1S(=O)(=O)c1ccc2c(c1)CCC2 (stereo not given)
pIC50 (A549): < 3.58
pIC50 (SK-MEL-2): 3.79

Cc1ccc(C2CNC(=O)N2S(=O)(=O)c2ccccc2)cc1 (stereo not given)
pIC50 (A549): 3.80
pIC50 (SK-MEL-2): 3.84

O=C1NC(c2ccc(Br)cc2)CN1S(=O)(=O)c1ccc(Cl)cc1 (stereo not given)
pIC50 (A549): 3.79
pIC50 (SK-MEL-2): 3.95

Cc1ccc(C2CN(S(=O)(=O)c3ccc4c(c3)CCC4)C(=O)N2)cc1 (stereo not given)
pIC50 (A549): 4.00
pIC50 (SK-MEL-2): 4.14

O=C1NC(c2ccccc2)CN1S(=O)(=O)c1ccc(Cl)cc1 (stereo not given)
pIC50 (A549): 5.02
pIC50 (SK-MEL-2): 5.84

O=C1NC(c2ccc(Br)cc2)CN1S(=O)(=O)c1ccc2c(c1)CCC2 (stereo not given)
pIC50 (A549): 4.47
pIC50 (SK-MEL-2): 4.49

Cc1ccc(C2CN(S(=O)(=O)c3ccccc3)C(=O)N2)cc1 (stereo not given)
pIC50 (A549): < 3.50
pIC50 (SK-MEL-2): < 3.50

Cc1ccc(S(=O)(=O)N2CC(c3ccccc3)NC2=O)cc1 (stereo not given)
pIC50 (A549): 4.90
pIC50 (SK-MEL-2): 5.60

Cc1ccc(S(=O)(=O)N2C(=O)NCC2c2ccccc2)cc1 (stereo not given)
pIC50 (A549): < 3.50
pIC50 (SK-MEL-2): < 3.50

O=C1NC(c2ccccc2)CN1S(=O)(=O)c1ccccc1 (stereo not given)
pIC50 (A549): 3.84
pIC50 (SK-MEL-2): 3.93

Cc1ccc(C2CNC(=O)N2S(=O)(=O)c2ccc(Cl)cc2)cc1 (stereo not given)
pIC50 (A549): 3.58
pIC50 (SK-MEL-2): 3.59

Cc1ccc(C2CNC(=O)N2S(=O)(=O)c2ccc3c(c2)CCC3)cc1 (stereo not given)
pIC50 (A549): 4.04
pIC50 (SK-MEL-2): 4.05

Cc1ccc(C2CNC(=O)N2S(=O)(=O)c2ccc(C)cc2)cc1 (stereo not given)
pIC50 (A549): < 3.52
pIC50 (SK-MEL-2): 3.63

Cc1ccc(S(=O)(=O)N2C(=O)NCC2c2ccc(Br)cc2)cc1 (stereo not given)
pIC50 (A549): 4.17
pIC50 (SK-MEL-2): 4.10

Cc1ccc(C2CN(S(=O)(=O)c3ccc(C)cc3)C(=O)N2)cc1 (stereo not given)
pIC50 (A549): < 3.52
pIC50 (SK-MEL-2): < 3.52

O=C1NCC(c2ccc(Br)cc2)N1S(=O)(=O)c1ccc2c(c1)CCC2 (stereo not given)
pIC50 (A549): < 3.62
pIC50 (SK-MEL-2): 3.92

Cc1ccc(C2CN(S(=O)(=O)c3ccc(Cl)cc3)C(=O)N2)cc1 (stereo not given)
pIC50 (A549): 3.80
pIC50 (SK-MEL-2): 3.91
